In ChEMBL document CHEMBL1201862, “PubChem BioAssay data set” (2004):
The source made the active and inactive calls.

Experiments:
[1] = molecular target: T1, ORF 73 (Human herpesvirus 8, UniProt O40947); assay: inhibitors of C-LANA binding to LBS DNA, dose response, biochemical, fluorescence polarization, cherry-picked samples (AID 504725); design: species or system Human gammaherpesvirus 8;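 also: fluorescence polarization of a labeled DNA duplex reporting LANA DNA binding; potency is for inhibitors that block LANA binding to the DNA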
T1 sequence (O40947 whole entry): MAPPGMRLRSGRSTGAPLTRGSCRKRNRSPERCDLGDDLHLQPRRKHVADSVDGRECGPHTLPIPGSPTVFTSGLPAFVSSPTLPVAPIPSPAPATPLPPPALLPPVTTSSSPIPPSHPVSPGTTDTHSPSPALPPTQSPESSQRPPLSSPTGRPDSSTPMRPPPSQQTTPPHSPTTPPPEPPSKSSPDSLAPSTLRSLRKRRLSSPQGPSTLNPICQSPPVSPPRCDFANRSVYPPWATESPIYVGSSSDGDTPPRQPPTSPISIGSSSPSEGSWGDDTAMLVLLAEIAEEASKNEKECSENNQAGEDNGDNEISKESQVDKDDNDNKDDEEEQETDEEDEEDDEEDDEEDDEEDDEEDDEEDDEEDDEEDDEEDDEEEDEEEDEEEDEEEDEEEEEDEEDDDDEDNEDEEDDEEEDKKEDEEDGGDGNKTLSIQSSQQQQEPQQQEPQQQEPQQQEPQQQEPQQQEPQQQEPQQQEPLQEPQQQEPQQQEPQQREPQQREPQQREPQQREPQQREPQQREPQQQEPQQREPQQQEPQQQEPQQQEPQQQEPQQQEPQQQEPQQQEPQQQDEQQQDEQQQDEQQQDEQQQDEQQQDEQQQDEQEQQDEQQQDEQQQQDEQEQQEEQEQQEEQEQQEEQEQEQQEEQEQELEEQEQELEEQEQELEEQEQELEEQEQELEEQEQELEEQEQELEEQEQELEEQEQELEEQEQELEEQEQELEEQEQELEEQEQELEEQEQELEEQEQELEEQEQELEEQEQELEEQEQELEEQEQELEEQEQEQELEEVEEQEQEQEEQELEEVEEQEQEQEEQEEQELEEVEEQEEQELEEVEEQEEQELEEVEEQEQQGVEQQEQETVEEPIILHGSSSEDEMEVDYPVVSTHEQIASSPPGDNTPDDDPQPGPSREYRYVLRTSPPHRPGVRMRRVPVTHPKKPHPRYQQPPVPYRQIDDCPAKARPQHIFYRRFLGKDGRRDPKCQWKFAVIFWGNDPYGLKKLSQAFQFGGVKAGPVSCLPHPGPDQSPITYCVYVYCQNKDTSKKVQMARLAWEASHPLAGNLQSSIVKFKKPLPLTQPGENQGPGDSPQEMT

[2] = molecular target: Keap1/Nrf2 (Homo sapiens, UniProt Q14145); assay: Keap1-Nrf2 protein-protein interaction inhibitors, dose response, biochemical, fluorescence polarization, cherry-picked samples (AID 588683)
[3] = inhibitors of firefly luciferase expression or activity, dose response, H4 neuroglioma cells, luminescence (AID 1990); type: functional, cell-based
[4] = luciferase reporter signal reduction – luminescence, H4-C neuroglioblastoma cells, dose response (AID 2458); type: functional, cell-based;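 also: H4 neuroglioblastoma cells stably carrying a luciferase reporter gene fusion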
[5] = system: BJ; assay: cytotoxicity toward BJ-TERT fibroblasts, dose response, cell-based, RAS-independent, luminescence (AID 1933); type: functional; conditions: Homo sapiens
[6] = cells; type: functional, cell-based
[7] = inhibitors of SNCA 5'UTR-driven reporter translation, confirmation, H4 neuroglioma cells, luminescence (AID 1988); type: functional, cell-based
[8] = system: BJ; assay: cells; type: functional, cell-based; conditions: Homo sapiens
[9] = system: BJ; assay: cytotoxicity toward BJ-TERT-LT-ST fibroblasts, dose response, cell-based, RAS-independent, luminescence (AID 1935); type: functional; conditions: Homo sapiens;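 also: BJ fibroblasts immortalized with TERT plus LT and ST oncogenes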
[10] = cytotoxicity toward DRD oncogenic fibroblasts, dose response, cell-based, non-viral oncogenic, luminescence (AID 1934); type: functional; conditions: Homo sapiens
[11] = inhibitors of SNCA 5'UTR-driven translation, confirmation, luminescence, H4 neuroglioblastoma cells, dose confirmation (AID 2454); type: functional, cell-based;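 also: H4 neuroglioblastoma cells carrying an alpha-synuclein 5'UTR luciferase reporter; potency for inhibition of the luciferase signal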
[12] = system: Jurkat; assay: antigen receptor-induced NF-kB inhibitors, dose response, Jurkat, luciferase reporter, luminescence, B- and T-cell (AID 489004); type: functional, cell-based; conditions: Homo sapiens;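 also: NF-kB luciferase reporter Jurkat cells stimulated with PMA plus ionomycin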
[13] = cytotoxicity in HEK-293T NF-kB-Luc cells, dose response, cytotoxicity control for B/T-cell NF-kB inhibitor project, cell-based, uHTS hits (AID 489019); type: functional;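 also: IC50 reflects cytotoxicity as loss of cell viability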
[14] = molecular target: Paired box protein Pax-8 (Homo sapiens, UniProt Q06710); assay: inhibitors of PAX8-driven TPO luciferase reporter, dose response, RMG-I cells, cherry-pick (AID 687027); type: functional, cell-based;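 also: luciferase reporter driven by Pax8 target thyroperoxidase promoter measured by SteadyGlo luminescence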
[15] = molecular target: T2, Cytochrome P450 1A2 (Homo sapiens, UniProt P05177);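 also: PubChem cytochrome P450 panel assay, CYP1A2 panel member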
T2 sequence (P05177 whole entry): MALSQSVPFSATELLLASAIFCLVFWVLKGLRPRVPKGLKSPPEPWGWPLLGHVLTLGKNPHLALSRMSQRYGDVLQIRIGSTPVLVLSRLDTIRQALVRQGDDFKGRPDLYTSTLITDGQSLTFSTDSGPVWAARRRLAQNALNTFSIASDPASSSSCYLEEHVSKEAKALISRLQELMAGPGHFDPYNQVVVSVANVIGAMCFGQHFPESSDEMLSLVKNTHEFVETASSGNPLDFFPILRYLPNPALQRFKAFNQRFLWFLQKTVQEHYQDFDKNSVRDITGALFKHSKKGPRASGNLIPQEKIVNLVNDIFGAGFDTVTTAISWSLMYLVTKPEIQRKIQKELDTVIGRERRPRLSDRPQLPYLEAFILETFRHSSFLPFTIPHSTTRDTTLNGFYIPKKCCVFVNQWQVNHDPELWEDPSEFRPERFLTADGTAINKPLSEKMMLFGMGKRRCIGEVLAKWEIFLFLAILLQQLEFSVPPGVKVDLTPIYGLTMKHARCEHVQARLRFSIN

[16] = molecular target: T3, Estrogen receptor (Homo sapiens, UniProt P03372);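 also: potency for inhibiting coactivator peptide recruitment to the receptor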
T3 sequence (P03372 whole entry): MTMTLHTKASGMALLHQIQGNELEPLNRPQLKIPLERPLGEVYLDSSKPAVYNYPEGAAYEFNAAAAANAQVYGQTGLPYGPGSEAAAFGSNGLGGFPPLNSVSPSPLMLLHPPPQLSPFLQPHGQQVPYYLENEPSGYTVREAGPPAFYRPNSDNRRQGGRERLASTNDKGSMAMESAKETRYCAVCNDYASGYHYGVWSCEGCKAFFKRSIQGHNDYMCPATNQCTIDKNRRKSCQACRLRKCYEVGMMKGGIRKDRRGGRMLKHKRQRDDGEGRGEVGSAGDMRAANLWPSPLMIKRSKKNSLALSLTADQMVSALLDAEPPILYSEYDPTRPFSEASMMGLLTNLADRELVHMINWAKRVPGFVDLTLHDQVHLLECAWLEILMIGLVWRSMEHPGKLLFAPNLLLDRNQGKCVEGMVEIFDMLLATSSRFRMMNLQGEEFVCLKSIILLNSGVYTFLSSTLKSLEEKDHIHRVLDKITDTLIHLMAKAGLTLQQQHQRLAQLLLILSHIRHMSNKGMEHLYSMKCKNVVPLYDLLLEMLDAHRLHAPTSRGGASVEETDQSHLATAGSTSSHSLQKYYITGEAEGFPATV

[17] = molecular target: Exodeoxyribonuclease V (Escherichia coli (strain K12), UniProt P04993+P07648+P08394); assay: E. coli RecBCD inhibitors, dose response, counter-screen for AddAB inhibitor project, absorbance, V66 E. coli, mutant T4 phage (AID 492957); type: functional, cell-based, Escherichia coli str. K-12 substr. MG1655
[18] = Counterscreen for AddAB inhibitors: absorbance-based bacterial cell-based high throughput dose response assay for inhibitors of bacterial viability. [Related pubchem assays (depositor defined):AID435030, AID449728, AID449731, AID488942, AID488955, AID488956]; type: functional

Chain of Paired box protein Pax-8 (Q06710 whole entry): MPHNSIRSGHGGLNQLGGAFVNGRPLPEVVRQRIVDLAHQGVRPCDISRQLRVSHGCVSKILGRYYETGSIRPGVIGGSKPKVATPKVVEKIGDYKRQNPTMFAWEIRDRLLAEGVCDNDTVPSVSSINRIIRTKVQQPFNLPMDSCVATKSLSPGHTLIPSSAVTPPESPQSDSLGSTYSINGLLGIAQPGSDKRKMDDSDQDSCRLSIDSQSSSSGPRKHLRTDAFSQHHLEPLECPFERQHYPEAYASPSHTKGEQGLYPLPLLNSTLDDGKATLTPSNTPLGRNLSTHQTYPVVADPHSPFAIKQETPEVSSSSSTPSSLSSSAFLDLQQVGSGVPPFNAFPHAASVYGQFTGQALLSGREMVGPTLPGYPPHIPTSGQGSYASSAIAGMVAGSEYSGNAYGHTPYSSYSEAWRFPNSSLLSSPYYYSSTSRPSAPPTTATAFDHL
Chain of Keap1/Nrf2 (Q16236 whole entry): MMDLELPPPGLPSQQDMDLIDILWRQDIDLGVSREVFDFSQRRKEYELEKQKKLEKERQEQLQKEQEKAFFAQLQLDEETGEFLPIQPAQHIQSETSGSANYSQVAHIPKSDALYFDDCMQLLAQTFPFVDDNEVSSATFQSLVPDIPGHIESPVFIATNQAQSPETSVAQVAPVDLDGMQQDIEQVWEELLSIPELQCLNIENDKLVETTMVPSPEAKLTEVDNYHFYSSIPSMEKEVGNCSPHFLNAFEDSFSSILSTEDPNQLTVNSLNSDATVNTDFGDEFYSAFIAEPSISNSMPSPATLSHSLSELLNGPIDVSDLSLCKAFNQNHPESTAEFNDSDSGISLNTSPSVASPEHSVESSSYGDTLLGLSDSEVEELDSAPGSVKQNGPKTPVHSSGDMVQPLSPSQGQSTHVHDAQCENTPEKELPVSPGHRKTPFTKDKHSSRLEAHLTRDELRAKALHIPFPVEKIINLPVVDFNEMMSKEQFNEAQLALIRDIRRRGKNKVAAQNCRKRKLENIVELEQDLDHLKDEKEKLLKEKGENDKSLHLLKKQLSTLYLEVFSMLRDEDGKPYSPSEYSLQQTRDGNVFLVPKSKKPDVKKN
Chain of Keap1/Nrf2 (Q14145 whole entry): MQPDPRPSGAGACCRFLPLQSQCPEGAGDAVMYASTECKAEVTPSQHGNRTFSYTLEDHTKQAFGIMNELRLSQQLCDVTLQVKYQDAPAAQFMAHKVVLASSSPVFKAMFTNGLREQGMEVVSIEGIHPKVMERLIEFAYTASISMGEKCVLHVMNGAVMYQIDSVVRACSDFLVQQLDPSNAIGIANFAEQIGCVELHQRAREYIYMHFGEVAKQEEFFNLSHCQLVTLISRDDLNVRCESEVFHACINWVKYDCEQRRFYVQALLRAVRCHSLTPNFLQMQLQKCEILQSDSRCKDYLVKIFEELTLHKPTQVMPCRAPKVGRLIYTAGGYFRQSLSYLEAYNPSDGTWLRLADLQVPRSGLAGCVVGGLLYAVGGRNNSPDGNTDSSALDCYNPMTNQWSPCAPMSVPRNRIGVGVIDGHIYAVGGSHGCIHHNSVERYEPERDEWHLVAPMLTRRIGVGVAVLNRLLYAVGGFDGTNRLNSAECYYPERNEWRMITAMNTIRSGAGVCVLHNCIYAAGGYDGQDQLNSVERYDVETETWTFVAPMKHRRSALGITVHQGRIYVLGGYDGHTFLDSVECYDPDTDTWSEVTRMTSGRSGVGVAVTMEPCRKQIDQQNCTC
Chain of Exodeoxyribonuclease V (P04993 whole entry): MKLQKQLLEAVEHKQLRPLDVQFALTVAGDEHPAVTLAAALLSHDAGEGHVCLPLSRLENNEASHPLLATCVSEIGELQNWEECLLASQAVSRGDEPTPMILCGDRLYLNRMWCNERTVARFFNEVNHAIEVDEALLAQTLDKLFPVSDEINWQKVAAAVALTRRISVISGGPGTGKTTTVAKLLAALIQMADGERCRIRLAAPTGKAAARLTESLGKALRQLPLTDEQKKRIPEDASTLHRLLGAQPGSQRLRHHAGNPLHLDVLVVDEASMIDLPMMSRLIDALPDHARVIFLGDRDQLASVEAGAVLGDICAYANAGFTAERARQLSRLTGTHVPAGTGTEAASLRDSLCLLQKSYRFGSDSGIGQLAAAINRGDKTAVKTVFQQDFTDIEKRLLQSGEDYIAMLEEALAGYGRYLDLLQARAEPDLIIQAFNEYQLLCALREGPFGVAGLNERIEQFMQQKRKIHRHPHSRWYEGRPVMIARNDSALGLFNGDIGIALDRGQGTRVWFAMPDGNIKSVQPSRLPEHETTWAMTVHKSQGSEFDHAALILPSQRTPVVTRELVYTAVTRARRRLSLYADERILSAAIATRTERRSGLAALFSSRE
Chain of Exodeoxyribonuclease V (P07648 whole entry): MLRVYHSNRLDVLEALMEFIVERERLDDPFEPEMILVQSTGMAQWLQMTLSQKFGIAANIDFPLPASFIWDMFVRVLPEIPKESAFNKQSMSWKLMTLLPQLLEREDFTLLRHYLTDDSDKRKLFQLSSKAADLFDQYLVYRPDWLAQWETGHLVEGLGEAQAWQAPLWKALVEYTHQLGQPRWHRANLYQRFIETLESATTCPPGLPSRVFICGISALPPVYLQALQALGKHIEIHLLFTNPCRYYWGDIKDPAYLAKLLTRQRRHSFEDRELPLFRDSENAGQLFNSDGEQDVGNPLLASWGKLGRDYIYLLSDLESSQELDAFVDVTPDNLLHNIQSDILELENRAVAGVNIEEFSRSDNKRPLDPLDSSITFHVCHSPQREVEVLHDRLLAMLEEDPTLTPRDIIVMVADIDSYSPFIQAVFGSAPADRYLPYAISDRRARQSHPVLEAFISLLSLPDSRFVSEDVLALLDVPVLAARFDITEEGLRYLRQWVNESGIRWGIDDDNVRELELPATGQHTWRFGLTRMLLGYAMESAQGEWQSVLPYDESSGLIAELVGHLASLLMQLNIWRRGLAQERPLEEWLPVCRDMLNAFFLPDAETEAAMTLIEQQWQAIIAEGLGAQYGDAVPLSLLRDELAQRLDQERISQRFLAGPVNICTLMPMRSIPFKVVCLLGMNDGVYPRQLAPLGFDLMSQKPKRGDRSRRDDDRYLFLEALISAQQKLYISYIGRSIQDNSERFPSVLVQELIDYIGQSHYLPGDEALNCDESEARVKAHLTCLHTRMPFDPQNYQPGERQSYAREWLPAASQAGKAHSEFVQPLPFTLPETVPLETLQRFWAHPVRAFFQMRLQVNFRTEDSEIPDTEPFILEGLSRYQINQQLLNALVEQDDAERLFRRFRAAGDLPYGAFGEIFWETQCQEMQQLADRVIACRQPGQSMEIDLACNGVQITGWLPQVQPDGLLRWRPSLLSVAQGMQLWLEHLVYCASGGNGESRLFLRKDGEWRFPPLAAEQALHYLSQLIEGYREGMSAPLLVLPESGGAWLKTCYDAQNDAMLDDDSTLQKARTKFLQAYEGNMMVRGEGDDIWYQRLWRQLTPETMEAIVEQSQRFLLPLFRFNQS
Chain of Exodeoxyribonuclease V (P08394 whole entry): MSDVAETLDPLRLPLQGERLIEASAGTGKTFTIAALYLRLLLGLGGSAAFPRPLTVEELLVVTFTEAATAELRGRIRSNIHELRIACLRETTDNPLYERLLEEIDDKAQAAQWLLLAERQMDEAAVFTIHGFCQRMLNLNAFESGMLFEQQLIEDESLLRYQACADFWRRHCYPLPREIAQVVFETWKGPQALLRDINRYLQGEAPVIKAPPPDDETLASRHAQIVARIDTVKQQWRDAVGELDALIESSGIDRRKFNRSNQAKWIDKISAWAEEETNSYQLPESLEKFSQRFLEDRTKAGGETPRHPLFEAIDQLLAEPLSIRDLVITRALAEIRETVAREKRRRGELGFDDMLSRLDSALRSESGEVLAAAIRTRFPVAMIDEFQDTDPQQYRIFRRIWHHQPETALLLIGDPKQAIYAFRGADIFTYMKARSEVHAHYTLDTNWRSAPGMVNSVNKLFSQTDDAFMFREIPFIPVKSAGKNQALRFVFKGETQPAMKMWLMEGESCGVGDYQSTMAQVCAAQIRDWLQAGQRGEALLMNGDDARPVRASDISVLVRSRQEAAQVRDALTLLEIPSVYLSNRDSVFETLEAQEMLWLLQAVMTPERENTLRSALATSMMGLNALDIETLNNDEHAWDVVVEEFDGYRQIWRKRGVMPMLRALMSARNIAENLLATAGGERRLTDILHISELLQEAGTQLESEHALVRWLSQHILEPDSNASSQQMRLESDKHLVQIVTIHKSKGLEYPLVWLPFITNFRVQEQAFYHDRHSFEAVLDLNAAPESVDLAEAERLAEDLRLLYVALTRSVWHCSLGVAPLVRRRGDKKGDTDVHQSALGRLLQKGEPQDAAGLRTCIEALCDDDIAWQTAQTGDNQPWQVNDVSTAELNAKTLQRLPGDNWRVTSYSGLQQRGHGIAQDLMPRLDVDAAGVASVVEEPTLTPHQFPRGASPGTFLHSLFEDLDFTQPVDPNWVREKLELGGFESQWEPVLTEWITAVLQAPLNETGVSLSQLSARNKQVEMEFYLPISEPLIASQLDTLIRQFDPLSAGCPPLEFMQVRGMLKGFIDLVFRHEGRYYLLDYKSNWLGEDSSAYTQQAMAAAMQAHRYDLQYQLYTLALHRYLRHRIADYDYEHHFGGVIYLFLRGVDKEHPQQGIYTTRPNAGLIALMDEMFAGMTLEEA

Cc1nc(Cl)c2c(n1)N=C1CCCC(O)=C1O2
AC50 [1]: 8800 nM (active) | AC50 [2]: 15100 nM (active)

O=C(c1ccc(Br)cc1)c1cc([N+](=O)[O-])ccc1N1CCCCC1
EC50 [3]: 623 nM (active) | EC50 [4]: 892 nM (active) | EC50 [5]: 697 nM (active) | EC50 [6]: 1490 nM (active) | EC50 [7]: < 100 nM (active) | EC50 [8]: 1120 nM (inconclusive) | EC50 [9]: 464 nM (active) | EC50 [10]: 694 nM (active) | EC50 [11]: > 12000 nM (inconclusive) | IC50 [12]: > 80000 nM (inactive) | IC50 [13]: > 80000 nM (inactive) | AC50 [14]: 2730 nM (active) | AC50 [15]: 2000 nM (inconclusive)

Cc1cccc(NC(=O)Cn2cc(C(=O)c3ccco3)c3ccccc32)c1
IC50 [16]: > 50000 nM (not active) | IC50 [17]: > 119000 nM (inactive) | IC50 [18]: > 119000 nM (inactive)
